Laboratory results as given in patent US20100196516A1, “TREATMENT OF INFECTIONS BY CARBON MONOXIDE” (priority 2007, published 2010).
“Also recorded” adds a separate entry of the source.

Key:
E. coli K-12 ATCC 23716 = type: cell-based, Escherichia coli; details: for effect on viability / growth of E. coli: CO gas flux 15 min, CORM-2 250 μM, CORM-3 400 μM, Formula IV 500 μM aerobic or 200 μM anaerobic, Formula V 50 μM, MS medium; for bactericidal effect on E. coli in the presence of Hb: with CO scavenger Hb, bovine, 20 μM
Method: (§1) Bacterial strains and growth conditions: E. coli K-12 ATCC 23716 and S. aureus NCTC8325 were grown in minimal salts (MS) medium (1.3% [wt/vol] Na2HPO4, 0.3% [wt/vol] KH2PO4, 0.05% [wt/vol] NaCl, and 0.1% [wt/vol] NH4Cl supplemented with 20 mM glucose, 2 mM MgSO4, 100 μM CaCl2, and 0.25% [wt/vol] Casamino Acids) and in Luria-Bertani (LB) medium (1% [wt/vol] tryptone, 0.5% [wt/vol] yeast extract, and 1% [wt/vol] NaCl), respectively, under different oxygen supply conditions. Aerobic experiments were undertaken with flasks filled to one-fifth of their volume, microaerobic tests were conducted with closed flasks filled to one-half of their volume, and anaerobic conditions were produced in rubber-sealed flasks that, once filled with medium and closed, were extensively fluxed with nitrogen gas.
(§2) CO gas and CORM treatment: Overnight cultures of E. coli or S. aureus grown in LB or tryptic soy broth, respectively, were used to inoculate fresh MS medium (E. coli) or LB medium (S. aureus), and the cultures on fresh medium were incubated at 37° C. under the required aeration conditions to an optical density at […] of 0.3. At this point, cells were exposed to a flux of CO gas for 15 min or to CORMs. Untreated cells were bubbled with nitrogen gas or treated with dimethyl sulfoxide, water, or methanol, depending on the solvent used to dissolve the CORM.
(§3) Viability assays: The number of viable cells was evaluated by measuring the CFU per milliliter upon plating serial dilutions of the various cultures onto agar plates. The percent survival was calculated as the number of colonies originated by treated cultures divided by the number of colonies formed upon the plating of untreated cultures. Sensitivity tests were conducted by plating 5 μl serial dilutions of cultures grown for 4 h and treated with CORMs, with or without the CO scavenger hemoglobin (Hb [bovine form used at 20 μM; Sigma]), onto agar.

S. aureus NCTC8325 = type: cell-based, Staphylococcus aureus; details: for effect on viability / growth of S. aureus: CO gas flux 15 min, CORM-2 250 μM, CORM-3 500 or 400 nM (so in the source), Formula IV 600 μM, Formula V 50 μM, LB medium; for bactericidal effect on S. aureus in the presence of Hb: with CO scavenger Hb, bovine, 20 μM
Method: as §1, §2, §3

bacteria = assay: Bactericidal effect / bacterial growth, bacterium not given; type: cell-based; details: for bactericidal properties or altered growth kinetics of decomposition products: same concentration as compound of Formula V (50 μM), data not shown
Method: as §2
as §3, with “agar. The experiments were performed with a minimum of three independent cultures, and the results are presented in the figures as averaged values with error bars representing one standard deviation.” for “agar.”

[1] = CO release kinetics: CO released into medium by CORMs (gas chromatography); type: physicochemical; details: media utilized (MS, LB), time scale of the experiment
Method: CO release kinetics: CORMs were mixed with MS or LB medium in sealed vessels, and the vessels were incubated at room temperature under constant stirring and protected from light. Gas samples were collected after 30 min and 4 h and analyzed using a gas chromatograph (Thermo Finnigan Trace) equipped with a CTRI column (Alltech) and a thermal conductivity detector. The CO released was quantified using a calibration curve recorded prior to the reaction course.

E. coli = assay: MIC and MBC by tube dilution test; type: cell-based, Escherichia coli; details: minimal medium, at least 18 h at 37° C.
Method: (§4) The investigation of MICs and minimal bactericidal concentrations (MBCs) was carried out by the tube dilution test. Briefly, 2.5 ml of minimal medium was inoculated with an overnight culture of E. coli or S. aureus to give an optical density at 600 nm of 0.005 to 0.01. Different concentrations of CORM-2, between 150 μM and 2 mM, were added to the diluted suspensions in the wells of 24-well plates, and the plates were incubated for at least 18 h at 37° C. and 90 rpm. The concentration of CORM-2 in the first well in the series with no sign of visible growth was reported as the MIC. […] After incubation at 37° C. for 24 h, the lowest concentration of CORM-2 in a culture with no growth was assumed to be the MBC.

S. aureus = assay: MIC and MBC by tube dilution test; type: cell-based, Staphylococcus aureus; details: minimal medium, at least 18 h at 37° C.
Method: as §4

H. pylori 26695 = assay: Diffusion disk assay, inhibition halos; type: cell-based, Helicobacter pylori; details: paper disks, 15 μl; 200 mM CORM-2; 150 mM Formula II and Formula III; 24-36 hours
hemoglobin (Hb) = biological target: T1, hemoglobin (Hb) (Bos taurus, UniProt P01966+P02070); assay: Transfer of CO from CORMs to Hb (carbonylation, shift of Soret band); type: biochemical, bovine
T1 construct: purchased Sigma
T1 sequence (P01966 2-142): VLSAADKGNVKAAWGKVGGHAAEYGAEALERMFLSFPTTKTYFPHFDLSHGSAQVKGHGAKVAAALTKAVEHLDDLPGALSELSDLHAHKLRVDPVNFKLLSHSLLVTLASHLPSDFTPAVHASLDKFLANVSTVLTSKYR
T1 sequence (P02070 whole entry): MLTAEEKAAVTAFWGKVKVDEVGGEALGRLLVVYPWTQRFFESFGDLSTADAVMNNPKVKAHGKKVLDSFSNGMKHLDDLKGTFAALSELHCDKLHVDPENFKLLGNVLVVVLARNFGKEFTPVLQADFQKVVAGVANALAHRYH

Row | Compound | effect on viability / growth of E. coli (E. coli K-12 ATCC 23716) | effect on viability / growth of S. aureus (S. aureus NCTC8325) | release of CO gas upon dissolution in the medium (in words) [1] | other results
1 | [C-]#[O+] [CO gas, Carbon monoxide] | significant growth impairment | significant growth impairment | – | concentration of CO needed to become effective as a bactericide (bacteria; CO administered as gas): ca. 1 mM
2 | [C-]#[O+].[C-]#[O+].[C-]#[O+].[C-]#[O+].[C-]#[O+].[C-]#[O+].[Cl][Ru][Cl].[Cl][Ru][Cl] [CORM-2, tricarbonyldichlororuthenium(II) dimer, reference compound] | significantly diminished | significantly diminished | neither CORM-2 nor CORM-3 releases CO gas | MBC/MIC ratio (E. coli): 1.5; MBC/MIC ratio (S. aureus): 1.0; bactericidal effect on H. pylori (inhibition halos) (H. pylori 26695): bactericidal effect; time for carbonylation of Hb (in words) (hemoglobin (Hb)): within the mixing time
3 | NCC(=O)O.[CH+]=O.[CH+]=O.[CH+]=O.[Cl][Ru] [CORM-3, tricarbonylchloro(glycinato)ruthenium(II), reference compound] | strongly decreased the viability | strongly decreased the viability | neither CORM-2 nor CORM-3 releases CO gas | time for carbonylation of Hb (in words) (hemoglobin (Hb)): within the mixing time
4 | O=[C][Mo]12([C]=O)([C]=O)[O]C(=O)CN(CCN(CC(=O)O)CC(=O)[O]1)CCN(CC(=O)O)CC(=O)[O]2 [compound of Formula III] | – | – | – | bactericidal effect on H. pylori (inhibition halos) (H. pylori 26695): bactericidal effect
5 | O=[C]=[Mn]([Br])(=[C]=O)(=[C]=O)(=[C]=O)=[C]=O [compound of Formula IV, bromo(pentacarbonyl)manganese] | strongly reducing the viability; also recorded: more effective in reducing the viability of E. coli cells grown anaerobically | strongly reducing the viability | rather small amounts | bactericidal effect on E. coli in the presence of Hb (E. coli K-12 ATCC 23716): completely eliminated the harmful action; bactericidal effect on S. aureus in the presence of Hb (S. aureus NCTC8325): completely eliminated the harmful action
6 | CC[N+](CC)(CC)CC.O=[C]=[Mo-]([Br])(=[C]=O)(=[C]=O)(=[C]=O)=[C]=O [compound of Formula V, tetraethylammonium molybdenum pentacarbonyl bromide] | strongly reducing the viability | strongly reducing the viability | rather small amounts | bactericidal effect on E. coli in the presence of Hb (E. coli K-12 ATCC 23716): completely eliminated the harmful action; bactericidal effect on S. aureus in the presence of Hb (S. aureus NCTC8325): completely eliminated the harmful action
7 | [Na+].[Na+].[O]=[Mo](=[O])([O-])[O-] [sodium molybdate] | – | – | – | bactericidal properties or altered growth kinetics of decomposition products (bacteria): None of these compounds had bactericidal properties or altered growth kinetics
8 | CC[N+](CC)(CC)CC.[Br-] [tetraethyl ammonium bromide] | – | – | – | bactericidal properties or altered growth kinetics of decomposition products (bacteria): None of these compounds had bactericidal properties or altered growth kinetics
